Results as given in US10669258B2, “3-sulfonyl-5-aminopyridine-2,4-diol APJ agonists” (BRISTOL-MYERS SQUIBB COMPANY, priority 2016, dated 2020).
pEC50: −log10 of the molar value.

The compounds below were run against T1, human APJ receptor (Homo sapiens, UniProt P35414) (assay: Intracellular cAMP accumulation assay (APJ hcAMP, HTRF)). Conditions: HEK293 cells stably expressing human APJ receptor; inhibition of forskolin-mediated cAMP production; Table 1; read-out: hAPJ cAMP EC50 Potency range.
T1 construct: expressed in transfected cells; host or cells: HEK293
T1 sequence (P35414 1-380): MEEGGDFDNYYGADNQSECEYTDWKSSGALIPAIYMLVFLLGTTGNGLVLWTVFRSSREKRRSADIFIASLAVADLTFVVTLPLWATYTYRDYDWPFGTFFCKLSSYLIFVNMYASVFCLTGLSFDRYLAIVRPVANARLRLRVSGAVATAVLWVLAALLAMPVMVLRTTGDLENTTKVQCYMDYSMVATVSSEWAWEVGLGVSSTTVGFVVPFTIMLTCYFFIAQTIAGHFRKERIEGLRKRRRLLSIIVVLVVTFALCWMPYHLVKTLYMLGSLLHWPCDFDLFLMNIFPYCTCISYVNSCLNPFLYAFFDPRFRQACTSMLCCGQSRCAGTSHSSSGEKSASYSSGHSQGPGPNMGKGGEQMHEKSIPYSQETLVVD
Format: cell-based
Outline: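 HEK293 cells stably expressing the receptor (5,000/well) treated with compound plus […] and 2 μM forskolin for 30 min at room temperature; cAMP by HTRF against a cAMP standard curve. EC50 from variable-slope sigmoidal fit; Ymax as % of (Pyr1)apelin-13 inhibition.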

pEC50, 8.00 to 11.00:
CCN(c1ccccc1)c1c(-c2cnn(C)c2)nc(O)c(S(=O)(=O)c2ccc(-c3ccccc3C(=O)NC)cc2)c1O [Example 151, 4′-((5-(ethyl(phenyl)amino)-2,4-dihydroxy-6-(1-methyl-1H-pyrazol-4-yl)pyridin-3-yl)sulfonyl)-N-methyl-[1,1′-biphenyl]-2-carboxamide]
CCCCc1nc(O)c(S(=O)(=O)c2ccc(-c3ccc(F)nc3C)cc2)c(O)c1N1CCCc2ccccc21 [Example 021, 6-butyl-5-(3,4-dihydroquinolin-1(2H)-yl)-3-((4-(6-fluoro-2-methylpyridin-3-yl)phenyl)sulfonyl)pyridine-2,4-diol]
CCCCc1nc(O)c(S(=O)(=O)c2ccc(-c3ccccc3C(N)=O)cc2)c(O)c1N(C)c1cccc(C#N)c1 [Example 138, 4′-((6-butyl-5-((3-cyanophenyl)(methyl)amino)-2,4-dihydroxypyridin-3-yl)sulfonyl)-[1,1′-biphenyl]-2-carboxamide]
CCCCc1nc(O)c(S(=O)(=O)c2ccc(-c3ccnc(F)c3C)cc2)c(O)c1N(C)c1cccc(F)c1 [Example 106, 6-butyl-3-((4-(2-fluoro-3-methylpyridin-4-yl)phenyl)sulfonyl)-5-((3-fluorophenyl)(methyl)amino)pyridine-2,4-diol]
CCCCc1nc(O)c(S(=O)(=O)c2ccc(-c3ccc(F)nc3C)cc2)c(O)c1N(CC)c1cccc(C#N)c1 [Example 178, 3-((2-butyl-5-((4-(6-fluoro-2-methylpyridin-3-yl)phenyl)sulfonyl)-4,6-dihydroxypyridin-3-yl)(ethyl)amino)benzonitrile]
CCCCc1nc(O)c(S(=O)(=O)c2ccc(-c3ccncc3C)cc2)c(O)c1N1CCCc2ccccc21 [Example 022, 6-butyl-5-(3,4-dihydroquinolin-1(2H)-yl)-3-((4-(3-methylpyridin-4-yl)phenyl)sulfonyl)pyridine-2,4-diol]
